Results as given in patent US20240228458A1, “PYRIMIDINE DERIVATIVE HAVING PROTEIN KINASE INHIBITORY ACTIVITY, AND THERAPEUTIC PHARMACEUTICAL COMPOSITION COMPRISING SAME” (THERAPEX CO., LTD., priority 2021, published 2024).

Tests used:
Assay type in all cases: cell-based
[1] = test system: Ba/F3 cells expressing EGFR-wt; assay: Growth inhibition (GI50) of Ba/F3 cells expressing EGFR-wt, Celltiter glo; details: Mus musculus, BaF3, 72 h
Outline: (§1)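 Ba/F3 cells carrying the given EGFR variant were seeded at 100,000 cells/ml and, 4 h later, treated with 10-point, 4-fold serial dilutions prepared from a 2 mM stock (0.5% DMSO final). After 72 h at 37 °C and 5% CO2, viable cells were quantified by CellTiter-Glo luminescence to derive GI50.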

[2] = test system: Ba/F3 cells expressing del19/T790M/C797S (EGFR-DTC); assay: Growth inhibition (GI50) of Ba/F3 cells expressing del19/T790M/C797S (EGFR-DTC), Celltiter glo; details: Mus musculus, BaF3, 72 h
Outline: as §1

[3] = test system: Ba/F3 cells expressing L858R/T790M/C797S (EGFR-LTC); assay: Growth inhibition (GI50) of Ba/F3 cells expressing L858R/T790M/C797S (EGFR-LTC), Celltiter glo; details: Mus musculus, BaF3, 72 h
Outline: as §1

[4] = test system: Ba/F3 cells expressing del19/T790M (EGFR-DT); assay: Growth inhibition (GI50) of Ba/F3 cells expressing del19/T790M (EGFR-DT), Celltiter glo; details: Mus musculus, BaF3, 72 h
Protocol: (§2) In this experimental example, a determination was made as to whether the compounds prepared in Examples 1-283 have the ability to inhibit the growth of Ba/F3 cells expressing EGFR-wt, del19/T790M/C797S (EGFR-DTC), L858R/T790M/C797S (EGFR-LTC), del19/T790M (EGFR-DT), and L858R/T790M (EGFR-LT) variants.
(§3) The parental Ba/F3 cell line is a population of cells that are not introduced with EGFR variants. Specifically, 100 μl of a cell line expressing each variant was plated in a 96-well plate at a density of 100,000 cells/ml. 10-point, 4-fold serial dilutions of each compound were prepared, starting at 2 mM. After 4 h, 0.5 μl of the compound (0.5% DMSO) was added, followed by incubation at 37° C. and 5% CO2 for 72 h. After incubation, the number of viable cells was measured using a Celltiter glo assay kit (Promega) and the GI50 of the compound was determined. The term “GI50” refers to the molar concentration (μM) of the compound required for 50% growth inhibition of cells.

[5] = test system: Ba/F3 cells expressing L858R/T790M (EGFR-LT); assay: Growth inhibition (GI50) of Ba/F3 cells expressing L858R/T790M (EGFR-LT), Celltiter glo; details: Mus musculus, BaF3, 72 h
Protocol: as §2, §3

parental Ba/F3 cell line = assay: Growth inhibition (GI50) of the parental Ba/F3 cell line (not introduced with EGFR variants), Celltiter glo; details: Mus musculus, BaF3, 72 h, parental Ba/F3 cells
Outline: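 Parental Ba/F3 cells (100,000 cells/ml) were treated with 10-point, 4-fold compound dilutions (0.5% DMSO; top stock 2 mM) for 72 h at 37 °C, 5% CO2. Viability was read by CellTiter-Glo; GI50 is the concentration (μM) giving 50% growth inhibition.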

| SMILES | GI50 [1] | GI50 [2] | GI50 [3] | GI50 [4] | GI50 [5] | GI50 (parental Ba/F3 cell line) |
| --- | --- | --- | --- | --- | --- | --- |
| COc1nc(N2CCS(=O)(=O)CC2)ccc1Nc1ncc(Cl)c(Nc2ccccc2NS(C)(=O)=O)n1 [Example 6] | 500 to 2000 nM | 500 to 2000 nM | 500 to 2000 nM | 500 to 2000 nM | 500 to 2000 nM | > 10000 nM |
| COc1nc(N2CCC(N3CCN(C)CC3)CC2)ccc1Nc1ncc(Cl)c(N(c2ccc3scnc3c2NS(C)(=O)=O)S(C)(=O)=O)n1 [Example 111, N-(5-chloro-2-((2-methoxy-6-(4-(4-methylpiperazin-1-yl)piperidin-1-yl)pyridin-3-yl)amino)pyrimidin-4-yl)-N-(4-(methylsulfonamido)benzo[d]thiazol-5-yl)methanesulfonamide] | 2000 to 10000 nM | 500 to 2000 nM |  | 500 to 2000 nM | 2000 to 10000 nM | 2000 to 10000 nM |
| COc1nc(N2CCC(N3CCN(C)CC3)CC2)ccc1Nc1ncc(Cl)c(Nc2ccc3nccnc3c2NS(C)(=O)=O)n1 [Example 132, N-(6-((5-chloro-2-((2-methoxy-6-(4-(4-methylpiperazin-1-yl)piperidin-1-yl)pyridin-3-yl)amino)pyrimidin-4-yl)amino)quinoxalin-5-yl)methanesulfonamide] | 500 to 2000 nM | 100 to 500 nM | 100 to 500 nM |  |  | 500 to 2000 nM |
| COc1cc(N2CCC(N3CCN(C)CC3)CC2)ccc1Nc1ncc(Cl)c(Nc2ccc3nccnc3c2NS(C)(=O)=O)n1 [Example 133, N-(6-((5-chloro-2-((2-methoxy-4-(4-(4-methylpiperazin-1-yl)piperidin-1-yl)phenyl)amino)pyrimidin-4-yl)amino)quinoxalin-5-yl)methanesulfonamide] | 500 to 2000 nM | 100 to 500 nM | 100 to 500 nM |  |  | 500 to 2000 nM |
| COc1nc(N2C[C@@H](C)N(C)[C@@H](C)C2)ccc1Nc1ncc(Cl)c(Nc2ccc3nccnc3c2NS(C)(=O)=O)n1 [Example 135, N-(6-((5-chloro-2-((2-methoxy-6-((3S,5R)-3,4,5-trimethylpiperazin-1-yl)pyridin-3-yl)amino)pyrimidin-4-yl)amino)quinoxalin-5-yl)methanesulfonamide] | 500 to 2000 nM | 100 to 500 nM | 100 to 500 nM |  |  | 500 to 2000 nM |
| COc1cc(N2CCC(N3CCN(C)CC3)CC2)c(Cl)cc1Nc1ncc(Cl)c(Nc2ccc3nccnc3c2NS(C)(=O)=O)n1 [Example 136, N-(6-((5-chloro-2-((5-chloro-2-methoxy-4-(4-(4-methylpiperazin-1-yl)piperidin-1-yl)phenyl)amino)pyrimidin-4-yl)amino)quinoxalin-5-yl)methanesulfonamide] | 500 to 2000 nM | 100 to 500 nM | 100 to 500 nM |  |  | 500 to 2000 nM |
| COc1cc(N2CCC(N3CCN(C)CC3)CC2)c(Cl)cc1Nc1ncc(Cl)c(Nc2cc(C(F)(F)F)ccc2NS(C)(=O)=O)n1 [Example 137, N-(2-((5-chloro-2-((5-chloro-2-methoxy-4-(4-(4-methylpiperazin-1-yl)piperidin-1-yl)phenyl)amino)pyrimidin-4-yl)amino)-4-(trifluoromethyl)phenyl)methanesulfonamide] | 500 to 2000 nM | 100 to 500 nM | 100 to 500 nM |  |  | 2000 to 10000 nM |
| COc1cc(N2CCC(N3CCN(C)CC3)CC2)c(C)cc1Nc1ncc(Cl)c(Nc2cc(C(F)(F)F)ccc2NS(C)(=O)=O)n1 [Example 138, N-(2-((5-chloro-2-((2-methoxy-5-methyl-4-(4-(4-methylpiperazin-1-yl)piperidin-1-yl)phenyl)amino)pyrimidin-4-yl)amino)-4-(trifluoromethyl)phenyl)methanesulfonamide] | 2000 to 10000 nM | 100 to 500 nM | 100 to 500 nM |  |  | 500 to 2000 nM |
| COc1cc(N2CCC(N3CCN(C4CC4)CC3)CC2)c(C)cc1Nc1ncc(Cl)c(Nc2cc(C(F)(F)F)ccc2NS(C)(=O)=O)n1 [Example 139, N-(2-((5-chloro-2-((4-(4-(4-cyclopropylpiperazin-1-yl)piperidin-1-yl)-2-methoxy-5-methylphenyl)amino)pyrimidin-4-yl)amino)-4-(trifluoromethyl)phenyl)methanesulfonamide] | 2000 to 10000 nM | 500 to 2000 nM | 500 to 2000 nM |  |  | 500 to 2000 nM |
| COc1cc(N2CCC(N3CCN(C)CC3)CC2)c(C)cc1Nc1nc(N)c(Cl)c(Nc2ccc(F)cc2NS(C)(=O)=O)n1 [Example 141, N-(2-((6-amino-5-chloro-2-((2-methoxy-5-methyl-4-(4-(4-methylpiperazin-1-yl)piperidin-1-yl)phenyl)amino)pyrimidin-4-yl)amino)-5-fluorophenyl)methanesulfonamide] | 500 to 2000 nM | 500 to 2000 nM | 500 to 2000 nM |  |  | > 10000 nM |
| COc1nc(C2CCCN(C)CC2)ccc1Nc1ncc(Br)c(Nc2ccc(F)cc2NS(C)(=O)=O)n1 (stereo not shown) [Example 145, N-(2-((5-bromo-2-((2-methoxy-6-(1-methylazepan-4-yl)pyridin-3-yl)amino)pyrimidin-4-yl)amino)-5-fluorophenyl)methanesulfonamide] | 2000 to 10000 nM | 100 to 500 nM | 100 to 500 nM |  |  | 2000 to 10000 nM |
| COc1cc(N2CCC(N3CCN(C)CC3)CC2)c(F)cc1Nc1ncc(Br)c(Nc2ccc(F)cc2NS(C)(=O)=O)n1 [Example 146, N-(2-((5-bromo-2-((5-fluoro-2-methoxy-4-(4-(4-methylpiperazin-1-yl)piperidin-1-yl)phenyl)amino)pyrimidin-4-yl)amino)-5-fluorophenyl)methanesulfonamide] | 500 to 2000 nM | 100 to 500 nM | 100 to 500 nM |  |  | 2000 to 10000 nM |
| COc1cc(N2CCC(N3CCN(C)CC3)CC2)c(Cl)cc1Nc1ncc(Cl)c(Nc2cc(Cl)ccc2NS(C)(=O)=O)n1 [Example 151, N-(4-chloro-2-((5-chloro-2-((5-chloro-2-methoxy-4-(4-(4-methylpiperazin-1-yl)piperidin-1-yl)phenyl)amino)pyrimidin-4-yl)amino)phenyl)methanesulfonamide] | 100 to 500 nM | 1 to 25 nM | 1 to 25 nM | 1 to 25 nM | 1 to 25 nM |  |
| COc1cc(N2CCC(N3CCN(C)CC3)CC2)c(C)cc1Nc1ncc(Cl)c(Nc2cc(Cl)ccc2-c2c[nH]nn2)n1 [Example 166] | 100 to 500 nM | 1 to 25 nM | 1 to 25 nM |  |  | 500 to 2000 nM |
| Cc1cc(Nc2ncc(Cl)c(Nc3cc(Cl)ccc3-c3cnn[nH]3)n2)c(Cl)cc1N1CCC(N2CCN(C)CC2)CC1 [Example 185] | 500 to 2000 nM | 500 to 2000 nM | 25 to 100 nM |  |  | 500 to 2000 nM |
| COc1cc(N2CCC(N3CCN(C)CC3)CC2)c(Cl)cc1Nc1ncc(Cl)c(Nc2cc(Cl)ccc2-c2cnn[nH]2)n1 [Example 186] | 25 to 100 nM | 25 to 100 nM | 25 to 100 nM |  |  | 100 to 500 nM |
| COc1cc(N2CCC(N3CCN(C)CC3)CC2)c(C)cc1Nc1ncc(Br)c(Nc2cc(Cl)ccc2-c2cnn[nH]2)n1 [Example 187] | 100 to 500 nM | 25 to 100 nM | 25 to 100 nM |  |  | 500 to 2000 nM |
| COc1cc(N2CCC(N3CCN(C)CC3)CC2)c(Cl)cc1Nc1ncc(Br)c(Nc2cc(Cl)ccc2-c2cnn[nH]2)n1 [Example 195] | 100 to 500 nM | 25 to 100 nM | 25 to 100 nM |  |  | 100 to 500 nM |
